Reference: patent US8956824B2, “Methods for identifying allosteric modulators of ship polypeptides” (British Columbia Cancer Agency Branch, priority 2006, dated 2015)
Entries after “also recorded” stand apart in the source; their conditions may differ.

Experiments:
PH domain deleted SHIP1 = biological target: T1, PH domain deleted SHIP1 (Mus musculus, UniProt Q9ES52, DEL292-400/E403A/P402A/Q401A); assay: In vitro SHIP enzyme assay, PH domain deleted SHIP1; format: biochemical; details: FIG. 10, FIG. 14A
T1 construct: Full length, wild-type SHIP1 enzyme (wt) or SHIP1 enzyme in which the PH or C2 domains were deleted; His6 (N); made in house; 293T cells are stated only for the wild-type enzyme
T1 sequence (Q9ES52 with tags, fused parts or gaps DEL292-400/Q401A/P402A/E403A): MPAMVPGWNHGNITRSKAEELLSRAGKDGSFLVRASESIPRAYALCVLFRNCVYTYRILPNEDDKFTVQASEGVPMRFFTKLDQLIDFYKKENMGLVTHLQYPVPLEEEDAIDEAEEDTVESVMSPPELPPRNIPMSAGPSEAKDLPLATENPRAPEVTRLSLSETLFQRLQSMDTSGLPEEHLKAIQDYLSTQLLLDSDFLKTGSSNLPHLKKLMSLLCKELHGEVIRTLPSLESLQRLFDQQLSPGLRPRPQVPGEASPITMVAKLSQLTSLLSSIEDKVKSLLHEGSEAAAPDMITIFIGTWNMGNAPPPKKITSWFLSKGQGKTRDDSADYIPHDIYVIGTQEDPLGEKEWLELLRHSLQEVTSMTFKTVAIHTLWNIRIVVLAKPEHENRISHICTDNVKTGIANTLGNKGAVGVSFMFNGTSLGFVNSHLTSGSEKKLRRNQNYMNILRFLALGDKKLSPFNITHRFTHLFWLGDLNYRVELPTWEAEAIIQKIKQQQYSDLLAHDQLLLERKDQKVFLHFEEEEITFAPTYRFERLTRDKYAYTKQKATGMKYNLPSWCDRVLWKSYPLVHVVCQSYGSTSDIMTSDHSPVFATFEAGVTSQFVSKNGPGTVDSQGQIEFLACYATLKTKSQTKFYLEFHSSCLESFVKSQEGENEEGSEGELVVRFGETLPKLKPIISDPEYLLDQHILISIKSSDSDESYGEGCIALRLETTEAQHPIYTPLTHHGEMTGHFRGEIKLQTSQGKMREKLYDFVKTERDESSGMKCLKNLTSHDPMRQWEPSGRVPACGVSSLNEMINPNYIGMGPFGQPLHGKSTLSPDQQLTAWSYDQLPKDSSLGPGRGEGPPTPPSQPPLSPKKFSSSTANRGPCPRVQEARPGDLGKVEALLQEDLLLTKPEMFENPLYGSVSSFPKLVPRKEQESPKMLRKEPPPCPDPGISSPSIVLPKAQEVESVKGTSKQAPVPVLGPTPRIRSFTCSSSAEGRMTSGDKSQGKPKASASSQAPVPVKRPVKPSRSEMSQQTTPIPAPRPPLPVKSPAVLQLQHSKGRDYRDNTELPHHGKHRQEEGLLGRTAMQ
Description: The SHIP1 PH domain deletion mutant and an isolated PH domain construct were generated using techniques similar to those used for the C2 domain. More specifically, the PH domain (amino acids 984-1319) was deleted from the murine SHIP (mSHIP) cDNA as follows: using pME18S-mSHIP1 as a template, a 527 by PCR fragment (“Upstream Fragment”) was generated using the indicated primers to generate a fragment corresponding to sequence immediately upstream of the SHIP PH domain within which resides a unique AccI restriction cut site. A Nod restriction cut site was also introduced to the 3′ end of this fragment. The PCR product was digested with Acd and Nod, and gel purified. Using pME18S-mSHIP1 as a template, a 776 by PCR fragment (“Downstream Fragment”) was generated using the indicated primers corresponding to sequence immediately downstream of the SHIP PH domain within which resides a unique ClaI restriction cut site. A Nod restriction cut site was introduced to the 5′ end of this fragment. […]
In vitro SHIP enzyme assay. […] The reaction was allowed to proceed for 20 min at 37° C. and the amount of inorganic phosphate released assessed by the addition of Malachite Green reagent followed by an absorbance measurement at 650 nm (15). […] Enzyme data are expressed as the mean of triplicates+/−SEM. […]

[1] = tested on: SHIP1+/+ and SHIP1−/− BMmφs; assay: LPS-stimulated TNFα production in BMmφs; format: cell-based, mouse; details: 30 min pretreatment, 10 ng/mL LPS, ELISA
Protocol: Production of SHIP+/+ and SHIP-/- BMMCs and BMnφs. […] LPS stimulation of BMmφs. For the analysis of LPS-stimulated TNFα production, 2 ×10^5 cells were plated the night before in 24 well plates in BMmφp medium. […] Data are expressed as the mean +/- SEM of triplicates and experiments were repeated 3 times. For analysis of intracellular signaling, 2×10^6 cells were plated the night before in 6 cm tissue culture plates. […] Cells were washed with 4° C. PBS and resuspended in lysis buffer (50 mM Hepes, 2 mM EDTA, 1mM NaVO4 , 100 mM NaF, 50 mM NaPPi and 1%NP4O) supplemented with COMPLETETM Protease Inhibitor Cocktail (Roche, Montreal, Canada). Lysates were rocked at 4° C. for 30 min and clarified by centrifuging 20 min at 12000×g. Lysates were then made 1× in Laemmli's buffer, boiled 2 min and loaded onto 7.5% SDS polyacrylamide […]. Immunoblot analysis for phospho PKB (Cell Signalling, Mississauga, Ont), SHIP1 and actin (Santa Cruz, Santa Cruz, Calif.) were carried out as described previously (18). Results are representative of 3 independent experiments.

## Cc1cc(O)cc2c1[C@]1(C)CC[C@H]3C(C)(C)CCC[C@]3(C)[C@H]1C2 [AQX-MN100]
PH domain deleted SHIP1
  activation of SHIP1 with PH domain deleted: attenuates but does not prevent activation; also recorded: abrogates ability of SHIP to be activated
[1]
  LPS-stimulated TNFα production, SHIP1+/+ vs SHIP1−/− macrophages: selectively inhibited TNFα production from SHIP1+/+ but not SHIP1−/− macrophages; also recorded: inhibits TNFα production from LPS stimulated SHIP1+/+ but not −/− BMmφs

## Cc1cc(O)c(O)c2c1[C@]1(C)CC[C@H]3C(C)(C)CCC[C@]3(C)[C@H]1C2 [AQX-016A]
[1]
  LPS-stimulated TNFα production, SHIP1+/+ vs SHIP1−/− macrophages: preferentially inhibited LPS-stimulated TNFα production in SHIP1+/+ than in SHIP1−/−

## phosphatidylinositol-3,4-bisphosphate [PI-3,4-P2, reference compound]
PH domain deleted SHIP1
  activation of SHIP1 with PH domain deleted: abrogates ability of SHIP to be activated
